# The source made the active and inactive calls. The rule behind the calls is not given here.
# Experiments:
# [1] = target: Beta-1 adrenergic receptor (Homo sapiens) (UniProt P08588); assay: Inhibition of human adrenergic beta1 receptor at 10 uM relative to control
# [2] = target: Melatonin receptor type 1A (Homo sapiens) (UniProt P48039); assay: Inhibition of human MT1 receptor at 10 uM relative to control
# [3] = Kinetic solubility of the compound in PBS at pH 7.4; assay type: physicochemical; settings: read-out: Kinetic_solubility
# Rattus norvegicus [4] = organism: Rattus norvegicus; assay: Inhibition of rat rolipram binding site at 10 uM relative to control
# [5] = target: Mu-type opioid receptor (Homo sapiens) (UniProt P35372); assay: Inhibition of human mu opioid receptor at 10 uM relative to control
# [6] = target: D(3) dopamine receptor (Homo sapiens) (UniProt P35462); assay: Inhibition of human dopamine D3 receptor at 10 uM relative to control
# [7] = target: Metabotropic glutamate receptor 4 (Rattus norvegicus) (UniProt P31423); assay: Negative allosteric modulation of rat mGlu4 receptor expressed in HEK/GIRK cells assessed as inhibition of glutamate induced-calcium mobilization preincubated for 2.3 mins followed by glutamate addition measured for 2.6 mins by Fluo-4 AM dye based fluorescence assay; assay type: functional, cell-based
# [8] = target: Endothelin receptor type B (Homo sapiens) (UniProt P24530); assay: Inhibition of human endothelin B receptor at 10 uM relative to control
# [9] = target: B2 bradykinin receptor (Homo sapiens) (UniProt P30411); assay: Inhibition of human bradykinin B2 receptor at 10 uM relative to control
# [10] = Unbound brain to plasma concentration ratio in Harlan CD-1 mouse at 3 mg/kg, ip by LC/MS-MS analysis; assay type: ADME, organism-based; settings: read-out: K(p,uu,brain)
# [11] = target: L-type calcium channel, dihydropyridine site (Rattus norvegicus, UniProt P22002+P27732+Q02485); assay: Inhibition of rat L-type calcium channel dihydropyridine site at 10 uM relative to control; assay type: protein assay
# [12] = target: Adenosine receptor A1 (Homo sapiens) (UniProt P30542); assay: Inhibition of human adenosine A1 receptor at 10 uM relative to control
# [13] = target: Adenosine receptor A2a (Homo sapiens) (UniProt P29274); assay: Inhibition of human adenosine A2a receptor at 10 uM relative to control
# [14] = target: T1, Glutamate NMDA receptor (Rattus norvegicus) (UniProt P35439+Q00959+Q00960+Q00961+Q62645+Q8VHN2+Q9R1M7); assay: Inhibition of rat glutamate NMDA receptor glycine binding site at 10 uM relative to control; assay type: protein-complex assay
# [15] = Brain to plasma partition coefficient, Kp of the compound in mouse; assay type: ADME
# [16] = target: Interleukin-1 receptor type 1 (Mus musculus) (UniProt P13504); assay: Inhibition of mouse IL1 receptor at 10 uM relative to control
# Rattus norvegicus [17] = organism: Rattus norvegicus; assay: Inhibition of rat thyroid hormone receptor at 10 uM relative to control
# Cytochrome P450 2C9 = Cytochrome P450 2C9 (Homo sapiens, UniProt P11712); assay: Inhibition of CYP2C9 in human liver microsomes using diclofenac as substrate after 15 mins in presence of NADPH by LC/MS/MS analysis; assay type: ADME
# [18] = Unbound brain-to-plasma concentration ratio in rat; assay type: ADME; settings: read-out: K(p,uu,brain)
# Rattus norvegicus [19] = organism: Rattus norvegicus; assay: Inhibition of rat kainate glutamate receptor at 10 uM relative to control
# [20] = target: Metabotropic glutamate receptor 8 (Rattus norvegicus) (UniProt P70579); assay: Negative allosteric modulation of rat mGlu8 receptor expressed in HEK/GIRK cells assessed as inhibition of glutamate induced-calcium mobilization preincubated for 2.3 mins followed by glutamate addition measured for 2.6 mins by Fluo-4 AM dye based fluorescence assay; assay type: functional, cell-based
# [21] = target: T1, Glutamate NMDA receptor (Rattus norvegicus); assay: Inhibition of rat glutamate NMDA receptor phencyclidine binding site at 10 uM relative to control; assay type: protein-complex assay
# [22] = target: Neuropeptide Y receptor type 2 (Homo sapiens) (UniProt P49146); assay: Inhibition of human […] Y2 receptor at 10 uM relative to control
# [23] = target: Beta-2 adrenergic receptor (Homo sapiens) (UniProt P07550); assay: Inhibition of human adrenergic beta2 receptor at 10 uM relative to control
# Oryctolagus cuniculus = organism: Oryctolagus cuniculus; assay: Inhibition of rabbit P2X receptor at 10 uM relative to control
# [24] = target: Platelet-activating factor receptor (Homo sapiens) (UniProt P25105); assay: Inhibition of human platelet activating factor receptor at 10 uM relative to control
# [25] = target: Muscarinic acetylcholine receptor M2 (Homo sapiens) (UniProt P08172); assay: Inhibition of human muscarinic M2 receptor at 10 uM relative to control
# [26] = target: B1 bradykinin receptor (Homo sapiens) (UniProt P46663); assay: Inhibition of human bradykinin B1 receptor at 10 uM relative to control
# [27] = target: Metabotropic glutamate receptor 7 (Rattus norvegicus) (UniProt P35400); assay: Negative allosteric modulation of rat mGlu7 receptor expressed in HEK/GIRK cells assessed as inhibition of L-AP4 induced-calcium mobilization preincubated for 2.3 mins followed by L-AP4 addition measured for 2.6 mins by Fluo-4 AM dye based fluorescence assay; assay type: functional, cell-based
# Mus musculus = assay: Antidepressant activity in CD-1 mouse assessed as reduction in immobility time administered ip 15 mins prior to test measured for 6 mins by tail suspension test; assay type: functional; settings: CD-1, ip, read-out: MED
# [28] = target: T1, Glutamate NMDA receptor (Rattus norvegicus); assay: Inhibition of rat glutamate NMDA receptor agonist binding site at 10 uM relative to control; assay type: protein-complex assay
# [29] = target: Substance-P receptor (Homo sapiens) (UniProt P25103); assay: Inhibition of human tachykinin NK1 receptor at 10 uM relative to control
# [30] = Brain to plasma partition coefficient, Kp of the compound in Harlan CD-1 mouse at 3 mg/kg, ip by LC/MS-MS analysis; assay type: ADME, organism-based
# Rattus norvegicus [31] = organism: Rattus norvegicus; assay: Inhibition of rat central GABA-A receptor flunitrazepam site at 10 uM relative to control
# [32] = target: Alpha-1B adrenergic receptor (Rattus norvegicus) (UniProt P15823); assay: Inhibition of rat adrenergic alpha 1B receptor at 10 uM relative to control
# [33] = target: Alpha-1D adrenergic receptor (Homo sapiens) (UniProt P25100); assay: Inhibition of human adrenergic alpha 1D receptor at 10 uM relative to control
# [34] = target: Sigma non-opioid intracellular receptor 1 (Homo sapiens) (UniProt Q99720); assay: Inhibition of human sigma 1 receptor at 10 uM relative to control
# [35] = Ratio of drug uptake in Harlan CD-1 mouse brain at 3 mg/kg, ip to IC50 for negative allosteric modulation of rat mGlu3 receptor expressed in TREX cells coexpressing Galpha15; assay type: ADME, organism-based; settings: in vivo
# [36] = Fraction unbound in rat plasma at 5 uM after 4 hrs by equilibrium dialysis based LC/MS/MS analysis; assay type: ADME, cell-free
# [37] = target: D(2) dopamine receptor (Homo sapiens) (UniProt P14416); assay: Inhibition of human dopamine D2S receptor at 10 uM relative to control
# Homo sapiens = organism: Homo sapiens; assay: Inhibition of human nicotinic acetylcholine receptor at 10 uM relative to control
# [38] = target: Adenosine receptor A3 (Homo sapiens) (UniProt P0DMS8); assay: Inhibition of human adenosine A3 receptor at 10 uM relative to control
# Sequence of D(3) dopamine receptor (Homo sapiens) (P35462 whole entry): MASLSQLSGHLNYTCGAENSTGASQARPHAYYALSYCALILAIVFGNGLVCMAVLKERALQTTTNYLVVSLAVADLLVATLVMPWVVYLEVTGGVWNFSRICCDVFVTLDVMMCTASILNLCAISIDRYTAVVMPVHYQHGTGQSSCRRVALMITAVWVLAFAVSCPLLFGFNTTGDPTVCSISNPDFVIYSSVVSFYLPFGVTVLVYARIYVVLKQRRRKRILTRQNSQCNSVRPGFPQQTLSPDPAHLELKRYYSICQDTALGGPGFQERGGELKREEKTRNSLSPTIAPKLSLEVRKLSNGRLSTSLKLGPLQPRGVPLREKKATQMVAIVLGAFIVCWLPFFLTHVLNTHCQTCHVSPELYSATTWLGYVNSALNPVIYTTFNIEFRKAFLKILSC
# Sequence of Metabotropic glutamate receptor 4 (Rattus norvegicus) (P31423 whole entry): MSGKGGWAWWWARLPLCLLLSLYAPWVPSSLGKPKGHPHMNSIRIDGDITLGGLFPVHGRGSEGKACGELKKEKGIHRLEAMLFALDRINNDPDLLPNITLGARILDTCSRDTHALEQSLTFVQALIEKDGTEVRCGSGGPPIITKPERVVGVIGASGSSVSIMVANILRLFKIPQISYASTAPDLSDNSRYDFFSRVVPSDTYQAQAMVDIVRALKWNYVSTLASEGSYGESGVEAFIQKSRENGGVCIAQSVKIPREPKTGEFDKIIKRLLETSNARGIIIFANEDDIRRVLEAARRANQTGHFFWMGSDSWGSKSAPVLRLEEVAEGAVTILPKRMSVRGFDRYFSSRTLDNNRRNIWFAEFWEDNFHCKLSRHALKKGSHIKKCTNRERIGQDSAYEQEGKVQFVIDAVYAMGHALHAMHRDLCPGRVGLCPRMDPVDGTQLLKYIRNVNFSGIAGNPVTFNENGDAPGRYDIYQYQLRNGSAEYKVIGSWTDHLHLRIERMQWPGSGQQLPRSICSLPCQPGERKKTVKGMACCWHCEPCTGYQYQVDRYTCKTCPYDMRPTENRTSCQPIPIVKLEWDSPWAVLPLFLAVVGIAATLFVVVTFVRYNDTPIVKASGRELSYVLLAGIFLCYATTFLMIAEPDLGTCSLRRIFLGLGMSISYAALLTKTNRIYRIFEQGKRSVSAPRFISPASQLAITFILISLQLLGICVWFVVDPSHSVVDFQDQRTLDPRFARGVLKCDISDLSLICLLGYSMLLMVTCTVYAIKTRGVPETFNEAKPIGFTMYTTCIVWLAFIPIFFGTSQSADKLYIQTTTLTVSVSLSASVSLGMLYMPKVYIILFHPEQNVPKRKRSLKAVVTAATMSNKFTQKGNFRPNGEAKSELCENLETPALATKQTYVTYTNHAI
# Sequence of Metabotropic glutamate receptor 8 (Rattus norvegicus) (P70579 whole entry): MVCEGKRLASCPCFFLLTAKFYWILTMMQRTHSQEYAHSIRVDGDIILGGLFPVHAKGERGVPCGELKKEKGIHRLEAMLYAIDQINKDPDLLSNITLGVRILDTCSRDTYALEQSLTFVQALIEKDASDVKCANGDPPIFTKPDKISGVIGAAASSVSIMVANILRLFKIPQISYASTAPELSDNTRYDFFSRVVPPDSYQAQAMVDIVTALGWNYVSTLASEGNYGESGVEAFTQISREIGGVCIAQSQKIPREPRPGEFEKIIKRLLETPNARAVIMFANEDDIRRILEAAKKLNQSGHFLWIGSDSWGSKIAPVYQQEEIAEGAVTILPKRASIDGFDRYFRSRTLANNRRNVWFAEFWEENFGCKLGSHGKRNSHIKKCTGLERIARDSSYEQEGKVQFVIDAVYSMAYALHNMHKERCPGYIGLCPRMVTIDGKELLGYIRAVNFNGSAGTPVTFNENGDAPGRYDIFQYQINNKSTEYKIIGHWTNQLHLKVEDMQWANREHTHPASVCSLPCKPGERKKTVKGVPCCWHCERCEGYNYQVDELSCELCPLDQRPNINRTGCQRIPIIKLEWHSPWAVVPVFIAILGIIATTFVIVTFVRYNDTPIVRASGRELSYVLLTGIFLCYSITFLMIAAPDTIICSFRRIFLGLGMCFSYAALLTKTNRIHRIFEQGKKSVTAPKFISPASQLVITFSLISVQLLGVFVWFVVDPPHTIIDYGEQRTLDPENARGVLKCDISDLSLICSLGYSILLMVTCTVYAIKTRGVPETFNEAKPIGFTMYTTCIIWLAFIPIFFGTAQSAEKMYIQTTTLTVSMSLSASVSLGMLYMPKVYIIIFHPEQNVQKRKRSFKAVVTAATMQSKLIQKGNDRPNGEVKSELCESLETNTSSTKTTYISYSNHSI
# Sequence of Melatonin receptor type 1A (Homo sapiens) (P48039 whole entry): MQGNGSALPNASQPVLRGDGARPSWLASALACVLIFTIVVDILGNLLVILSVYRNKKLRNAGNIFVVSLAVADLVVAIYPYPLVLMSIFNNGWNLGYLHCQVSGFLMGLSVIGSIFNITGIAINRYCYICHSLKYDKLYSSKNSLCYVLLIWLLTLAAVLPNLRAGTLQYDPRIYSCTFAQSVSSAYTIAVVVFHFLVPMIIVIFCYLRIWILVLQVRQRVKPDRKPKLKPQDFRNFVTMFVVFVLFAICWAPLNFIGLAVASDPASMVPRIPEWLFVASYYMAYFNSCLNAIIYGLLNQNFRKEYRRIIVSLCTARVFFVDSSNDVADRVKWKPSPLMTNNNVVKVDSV
# Sequence of Metabotropic glutamate receptor 7 (Rattus norvegicus) (P35400 whole entry): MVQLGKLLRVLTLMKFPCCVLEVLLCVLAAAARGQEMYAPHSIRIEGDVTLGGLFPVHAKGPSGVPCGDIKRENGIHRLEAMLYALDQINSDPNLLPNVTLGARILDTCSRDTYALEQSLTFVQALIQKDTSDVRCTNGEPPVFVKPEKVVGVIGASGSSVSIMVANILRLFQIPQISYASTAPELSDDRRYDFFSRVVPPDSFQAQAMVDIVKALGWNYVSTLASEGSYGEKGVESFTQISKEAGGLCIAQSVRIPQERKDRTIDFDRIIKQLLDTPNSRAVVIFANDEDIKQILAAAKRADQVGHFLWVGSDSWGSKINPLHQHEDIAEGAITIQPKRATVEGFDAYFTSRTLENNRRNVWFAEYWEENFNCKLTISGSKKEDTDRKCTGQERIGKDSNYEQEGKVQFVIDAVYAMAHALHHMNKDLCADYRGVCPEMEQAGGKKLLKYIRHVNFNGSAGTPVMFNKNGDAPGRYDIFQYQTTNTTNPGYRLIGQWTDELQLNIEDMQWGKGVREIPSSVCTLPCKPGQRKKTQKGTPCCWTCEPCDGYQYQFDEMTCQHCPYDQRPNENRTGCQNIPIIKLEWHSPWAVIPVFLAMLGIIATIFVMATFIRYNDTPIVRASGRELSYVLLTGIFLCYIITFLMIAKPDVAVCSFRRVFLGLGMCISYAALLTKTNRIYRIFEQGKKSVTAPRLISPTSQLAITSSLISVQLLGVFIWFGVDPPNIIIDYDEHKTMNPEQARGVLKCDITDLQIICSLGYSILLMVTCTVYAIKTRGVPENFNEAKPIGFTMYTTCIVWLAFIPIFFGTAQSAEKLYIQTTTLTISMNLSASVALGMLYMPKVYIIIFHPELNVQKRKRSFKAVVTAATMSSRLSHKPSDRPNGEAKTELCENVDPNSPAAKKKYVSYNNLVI
# Sequence of Interleukin-1 receptor type 1 (Mus musculus) (P13504 whole entry): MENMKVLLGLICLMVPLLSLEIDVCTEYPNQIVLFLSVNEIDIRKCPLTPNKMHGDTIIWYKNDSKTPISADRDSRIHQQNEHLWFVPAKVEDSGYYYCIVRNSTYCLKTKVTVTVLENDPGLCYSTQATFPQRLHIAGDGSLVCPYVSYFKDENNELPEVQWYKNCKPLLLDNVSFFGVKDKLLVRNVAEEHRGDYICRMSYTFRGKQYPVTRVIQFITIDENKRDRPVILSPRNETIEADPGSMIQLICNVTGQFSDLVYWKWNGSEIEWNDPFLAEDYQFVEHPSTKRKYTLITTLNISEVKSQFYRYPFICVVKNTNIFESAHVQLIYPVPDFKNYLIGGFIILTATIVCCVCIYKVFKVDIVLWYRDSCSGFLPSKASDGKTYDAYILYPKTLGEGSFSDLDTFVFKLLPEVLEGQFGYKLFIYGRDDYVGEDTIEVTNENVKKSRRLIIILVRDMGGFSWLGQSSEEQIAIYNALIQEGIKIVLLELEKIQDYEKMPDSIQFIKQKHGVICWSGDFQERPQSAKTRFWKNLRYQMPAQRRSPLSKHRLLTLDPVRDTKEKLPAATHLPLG
# Sequence of Beta-2 adrenergic receptor (Homo sapiens) (P07550 whole entry, looked up): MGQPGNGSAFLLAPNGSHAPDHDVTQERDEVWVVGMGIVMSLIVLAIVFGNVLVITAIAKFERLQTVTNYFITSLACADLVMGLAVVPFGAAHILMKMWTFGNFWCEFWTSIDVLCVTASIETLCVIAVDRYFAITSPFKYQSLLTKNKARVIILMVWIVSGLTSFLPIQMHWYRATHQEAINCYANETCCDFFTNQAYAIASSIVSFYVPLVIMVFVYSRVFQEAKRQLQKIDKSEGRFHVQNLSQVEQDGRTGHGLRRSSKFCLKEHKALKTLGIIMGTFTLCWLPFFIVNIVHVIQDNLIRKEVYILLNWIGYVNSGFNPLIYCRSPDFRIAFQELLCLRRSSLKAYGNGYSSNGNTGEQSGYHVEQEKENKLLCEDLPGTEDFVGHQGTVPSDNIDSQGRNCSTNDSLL
# Sequence of Sigma non-opioid intracellular receptor 1 (Homo sapiens) (Q99720 whole entry): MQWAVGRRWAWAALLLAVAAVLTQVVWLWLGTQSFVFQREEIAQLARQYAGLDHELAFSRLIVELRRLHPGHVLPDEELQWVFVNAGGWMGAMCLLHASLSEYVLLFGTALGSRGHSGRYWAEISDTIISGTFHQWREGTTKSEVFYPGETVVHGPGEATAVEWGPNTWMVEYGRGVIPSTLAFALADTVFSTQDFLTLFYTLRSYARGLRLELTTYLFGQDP
# Sequence of Adenosine receptor A1 (Homo sapiens) (P30542 whole entry): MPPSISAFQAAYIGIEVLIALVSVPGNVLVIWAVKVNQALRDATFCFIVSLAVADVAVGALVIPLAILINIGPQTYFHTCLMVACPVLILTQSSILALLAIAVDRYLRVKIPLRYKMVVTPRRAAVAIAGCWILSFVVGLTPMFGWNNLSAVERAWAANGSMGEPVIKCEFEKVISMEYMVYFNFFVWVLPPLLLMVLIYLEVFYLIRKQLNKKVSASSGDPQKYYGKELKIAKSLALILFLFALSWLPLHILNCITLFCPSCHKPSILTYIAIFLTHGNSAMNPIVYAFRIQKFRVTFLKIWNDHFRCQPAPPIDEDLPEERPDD
smiles,measurement,setting,value
C[C@@H](COc1ccn(-c2ccc(F)cc2)c(=O)c1)Oc1ccccc1,inhibition,[1],> 50%
same,inhibition,[2],> 50%
same,solubility kinetic,[3],98 µM
same,inhibition,Rattus norvegicus [4],> 50%
same,inhibition,[5],> 50%
same,inhibition,[6],> 50%
same,inhibition,[7],inactive
same,inhibition,[8],> 50%
same,inhibition,[9],> 50%
same,Kp uu,[10],0.27
same,inhibition at 10 µM,[11],> 50%
same,inhibition,[12],> 50%
same,inhibition,[13],> 50%
same,inhibition,[14],> 50%
same,Kp,[15],1.17
same,inhibition,[16],> 50%
same,inhibition,Rattus norvegicus [17],> 50%
same,IC50,Cytochrome P450 2C9,> 30 µM
same,Kp uu,[18],0.4
same,inhibition,Rattus norvegicus [19],> 50%
same,inhibition,[20],inactive
same,inhibition,[21],> 50%
same,inhibition,[22],> 50%
same,inhibition,[23],> 50%
same,inhibition,Oryctolagus cuniculus,> 50%
same,inhibition,[24],> 50%
same,inhibition,[25],> 50%
same,inhibition,[26],> 50%
same,inhibition,[27],inactive
same,minimal effective dose,Mus musculus,3 mg/kg
same,inhibition,[28],> 50%
same,inhibition,[29],> 50%
same,Kp,[30],1.2
same,inhibition,Rattus norvegicus [31],> 50%
same,inhibition,[32],> 50%
same,inhibition,[33],> 50%
same,inhibition,[34],> 50%
same,Ratio,[35],5
same,"fraction unbound at 4 h, 5 µM",[36],0.18
same,inhibition,[37],> 50%
same,inhibition,Homo sapiens,> 50%
same,inhibition,[38],> 50%
